From patent publication US20250197403A1, “HETEROARYL COMPOUNDS FOR TREATMENT OF COMPLEMENT FACTOR D MEDIATED DISORDERS” (Achillion Pharmaceuticals, Inc., priority 2020, published 2025)

What follows are molecules tested against Human Factor D (Homo sapiens (Human), UniProt P00746) (assay: Human Factor D Assay). Conditions: Human Factor D 80 nM, substrate Z-L-Lys-SBzl, assay according to Example 3.
Type: biochemical
Experimental: The assay according to Example 3 was used to determine the IC50's of the compounds. Other standard factor D inhibition assays are also available.
Human Factor D (purified from human serum, Complement Technology, Inc.) at 80 nM final concentration is incubated with test compound at various concentrations for 5 min at room temperature in 50 mM Tris, 1M NaCl, pH 7.5. A synthetic substrate Z-L-Lys-SBzl and DTNB (Ellman's reagent) are added to final concentrations of 100 μM each. Absorbance at 405 nm (A405) is recorded at 30 second intervals for 30 min using a microplate spectrophotometer. IC50 values are calculated by nonlinear regression of complement Factor D reaction rates as a function of test compound concentration.

Chain of Human Factor D (P00746 26-253): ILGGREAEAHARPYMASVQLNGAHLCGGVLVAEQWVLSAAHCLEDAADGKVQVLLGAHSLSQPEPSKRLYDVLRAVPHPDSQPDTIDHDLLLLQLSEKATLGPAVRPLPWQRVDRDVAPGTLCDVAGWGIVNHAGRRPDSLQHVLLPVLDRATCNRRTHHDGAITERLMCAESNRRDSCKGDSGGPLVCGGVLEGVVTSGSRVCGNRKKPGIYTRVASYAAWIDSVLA

Question: Which IC50 does the source give for `COCc1ccc(C(F)(F)F)nc1NC(=O)[C@@H]1C[C@@]2(C)C[C@H]2N1C(=O)Cn1cc(C(C)=O)c2cc(-c3cnc4cc(C)nn4c3)c(F)c(C)c21` [Compound 2, (1R,3S,5R)-2-(2-(3-acetyl-6-fluoro-7-methyl-5-(2-methylpyrazolo[1,5-a]-pyrimidin-6-yl)-1H-indol-1-yl)acetyl)-N-(3-(meth-oxymethyl)-6-(trifluoro-methyl)pyridin-2-yl)-5-methyl-2-azabicyclo[3.1.0] hexane-3-carboxamide] here?
Answer: < 1000 nM

Question: How did the IC50 turn out when `CC(=O)c1cn(CC(=O)N2[C@H](C(=O)Nc3nc(C(F)(F)F)ccc3Cl)C[C@@]3(C)C[C@@H]23)c2c(C)cc(-c3ccc4nc(C)nn4c3)cc12` [Compound 3, (1R,3S,5R)-2-(2-(3-acetyl-7-methyl-5-(2-methyl-[1,2,4]triazolo[1,5-a]pyr-idin-6-yl)-1H-indol-1-yl)-acetyl)-N-(3-chloro-6-(tri-fluoromethyl)pyridin-2-yl)-5-methyl-2-azabicyclo-[3.1.0]hexane-3-carbox-amide] was run?
Answer: < 1000 nM

Question: With `COCc1ccc(C(F)(F)F)nc1NC(=O)[C@@H]1[C@@H]2C[C@@H]2CN1C(=O)Cn1cc(C(C)=O)c2cc(-c3ccc4nc(C)nn4c3)cc(C)c21` [Compound 4, (1R,2S,5S)-3-(2-(3-acetyl-7-methyl-5-(2-methyl-[1,2,4]triazolo[1,5-a]pyr-idin-6-yl)-1H-indol-1-yl)-acetyl)-N-(3-(methoxy-methyl)-6-(trifluorometh-yl)pyridin-2-yl)-3-aza-bicyclo[3.1.0]hexane-2-carboxamide] as the molecule, how does the IC50 read?
Answer: < 1000 nM

Question: How did the IC50 turn out when `COCc1ccc(C(F)(F)F)nc1NC(=O)[C@@H]1C[C@@]2(C)C[C@H]2N1C(=O)Cn1cc(C(C)=O)c2cc(-c3ccc4nc(C)nn4c3)c(F)c(C)c21` [Compound 5, (1R,3S,5R)-2-(2-(3-acetyl-6-fluoro-7-methyl-5-(2-methyl-[1,2,4]triazolo[1,5-a]pyridin-6-yl)-1H-indol-1-yl)acetyl)-N-(3-(meth-oxymethyl)-6-(trifluoro-methyl)pyridin-2-yl)-5-methyl-2-azabicyclo[3.1.0] hexane-3-carboxamide] was run?
Answer: < 1000 nM

Question: Which IC50 does the source give for `CC(=O)c1cn(CC(=O)N2C[C@H]3C[C@H]3[C@H]2C(=O)Nc2nc(C(F)(F)F)ccc2Cl)c2c(C)cc(-c3cnc4cc(C)nn4c3)cc12` [Compound 6, (1R,2S,5S)-3-(2-(3-acetyl-7-methyl-5-(2-methylpyr-azolo[1,5-a]pyrimidin-6-yl)-1H-indol-1-yl)acetyl)-N-(3-chloro-6-(trifluoro-methyl)pyridin-2-yl)-3-azabicyclo[3.1.0]hexane-2-carboxamide] here?
Answer: < 1000 nM

Question: With `COCc1ccc(C(F)(F)F)nc1NC(=O)[C@@H]1[C@@H]2C[C@@H]2CN1C(=O)Cn1cc(C(C)=O)c2cc(-c3cnc4cc(C)nn4c3)cc(C)c21` [Compound 7, (1R,2S,5S)-3-(2-(3-acetyl-7-methyl-5-(2-methylpyr-azolo[1,5-a]pyrimidin-6-yl)-1H-indol-1-yl)acetyl)-N-(3-(methoxymethyl)-6-(trifluoromethyl)pyridin-2-yl)-3-azabicyclo[3.1.0] hexane-2-carboxamide] as the molecule, how does the IC50 read?
Answer: < 1000 nM

Question: With `CC(=O)c1cn(CC(=O)N2[C@H](C(=O)Nc3nc(Br)ccc3C3CC3)C[C@@]3(C)C[C@@H]23)c2c(C)cc(-c3cnc4cc(C)nn4c3)cc12` [Compound 8, (1R,3S,5R)-2-(2-(3-acetyl-7-methyl-5-(2-methylpyr-azolo[1,5-a]pyrimidin-6-yl)-1H-indol-1-yl)acetyl)-N-(6-bromo-3-cycloprop-ylpyridin-2-yl)-5-methyl-2-azabicyclo[3.1.0]hexane-3-carboxamide] as the molecule, how does the IC50 read?
Answer: > 10000 nM

Question: How did the IC50 turn out when `CC(=O)c1cn(CC(=O)N2C[C@@](F)(CF)C[C@H]2C(=O)Nc2nc(C(F)(F)F)ccc2C)c2c(C)cc(-c3cnc4cc(C)nn4c3)cc12` [Compound 10, (2S,4R)-1-(2-(3-acetyl-7-methyl-5-(2-methylpyr-azolo[1,5-a]pyrimidin-6-yl)-1H-indol-1-yl)acetyl)-4-fluoro-4-(fluoromethyl)-N-(3-methyl-6-(trifluoro-methyl)pyridin-2-yl)pyr-rolidine-2-carboxamide] was run?
Answer: < 1000 nM

Question: With `CC(=O)c1cn(CC(=O)N2C[C@@](F)(CF)C[C@H]2C(=O)Nc2nc(C(F)(F)F)ccc2C)c2c(C)cc(-c3ccc4nc(C)nn4c3)cc12` [Compound 11, (2S,4R)-1-(2-(3-acetyl-7-methyl-5-(2-methyl-[1,2,4]triazolo[1,5-a]pyr-idin-6-yl)-1H-indol-1-yl)-acetyl)-4-fluoro-4-(fluoro-methyl)-N-(3-methyl-6-(trifluoromethyl)pyridin-2-yl)pyrrolidine-2-carbox-amide] as the molecule, how does the IC50 read?
Answer: < 1000 nM

Question: With `CC(=O)c1cn(CC(=O)N2[C@H](C(=O)Nc3nc(C(F)(F)F)cc(F)c3C)C[C@@]3(C)C[C@@H]23)c2c(C)cc(-c3cnc4cc(C)nn4c3)cc12` [Compound 12, (1R,3S,5R)-2-(2-(3-acetyl-7-methyl-5-(2-methylpyr-azolo[1,5-a]pyrimidin-6-yl)-1H-indol-1-yl)acetyl)-N-(4-fluoro-3-methyl-6-(trifluoromethyl)pyridin-2-yl)-5-methyl-2-azabicyclo [3.1.0]hexane-3-carbox-amide] as the molecule, how does the IC50 read?
Answer: < 1000 nM

Question: How did the IC50 turn out when `CC(=O)c1cn(CC(=O)N2[C@H](C(=O)Nc3nc(C(F)(F)F)ccc3C)C[C@@]3(C)C[C@@H]23)c2c(C)cc(-c3cnc4cc(C#N)nn4c3)cc12` [Compound 13, (1R,3S,5R)-2-(2-(3-acetyl-5-(2-cyanopyrazolo[1,5-a]pyrimidin-6-yl)-7-methyl-1H-indol-1-yl)acetyl)-5-methyl-N-(3-methyl-6-(trifluoromethyl)pyridin-2-yl)-2-azabicyclo[3.1.0] hexane-3-carboxamide] was run?
Answer: < 1000 nM

Question: For `CC(=O)c1cn(CC(=O)N2[C@H](C(=O)Nc3nc(C(F)(F)F)ccc3C#N)C[C@@]3(C)C[C@@H]23)c2c(C)cc(-c3cnc4cc(C)nn4c3)cc12` [Compound 14, (1R,3S,5R)-2-(2-(3-acetyl-7-methyl-5-(2-methylpyr-azolo[1,5-a]pyrimidin-6-yl)-1H-indol-1-yl)acetyl)-N-(3-cyano-6-(trifluoro-methyl)pyridin-2-yl)-5-methyl-2-azabicyclo[3.1.0] hexane-3-carboxamide], which IC50 is on record?
Answer: < 1000 nM

Question: Which IC50 does the source give for `CC(=O)c1cn(CC(=O)N2[C@H](C(=O)Nc3nc(Br)cc(F)c3C)C[C@@]3(C)C[C@@H]23)c2c(C)cc(-c3cnc(C)nc3)cc12` [Compound 15, (1R,3S,5R)-2-(2-(3-acetyl-7-methyl-5-(2-methylpyr-imidin-5-yl)-1H-indol-1-yl)acetyl)-N-(6-bromo-4-fluoro-3-methylpyridin-2-yl)-5-methyl-2-azabicyclo [3.1.0]hexane-3-carbox-amide] here?
Answer: < 1000 nM

Question: `CC(=O)c1cn(CC(=O)N2[C@H](C(=O)Nc3nc(C(F)(F)F)c(F)cc3C)C[C@@]3(C)C[C@@H]23)c2c(C)cc(-c3cnc4cc(C)nn4c3)cc12` [Compound 16, (1R,3S,5R)-2-(2-(3-acetyl-7-methyl-5-(2-methylpyr-azolo[1,5-a]pyrimidin-6-yl)-1H-indol-1-yl)acetyl)-N-(5-fluoro-3-methyl-6-(trifluoromethyl)pyridin-2-yl)-5-methyl-2-azabicyclo [3.1.0]hexane-3-carbox-amide] was tested. Which IC50 did it give?
Answer: < 1000 nM
